Data as given in patent US10166216B2 (Rigel Pharmaceuticals, Inc., priority 2006, dated 2019).

The molecules below were run against Axl (Homo sapiens (Human), UniProt P30530) (assay: Phospho-Akt in-cell Western assay (Axl-antibody cross-linking stimulation)). Settings: inhibition of Axl activity, Hela cells, phospho-Akt readout; Table 1, formula (Ia1).
Type: cell-based
Experimental: The working solution: dilute the stock 1:20 with PBS immediately before use. • 10% SDS: working solution: 5% SDS (sodium dodecylsulfate), diluted in PBS Methods: Day 1:
A 96 well TC (tissue culture treated) plate was coated with 10 μg/mL poly-L-Lysine at 37° C. for 30 min, washed twice with PBS, and air-dried for 5 minutes before cells were added. Hela cells were seeded at 10,000 cells/well and the cells were starved in 100 μL starvation medium containing Axl/Fc for 24 hrs.
The cells were pre-treated with test compounds by adding 100 μL of 2× test compound to the starvation medium on the cells. The cells were incubated at 37° C. for 1 hr before stimulation.
The resulting mix was warmed to 37° C. 50 μL of 5× Axl 1st/2nd of antibody cluster was added to the cells and the cells were incubated at 37° C. for 5 min.
After 5 minutes stimulation, the plate was flicked to remove medium and the plate was tapped onto paper towels. Formaldehyde (4.0% in PBS, 100 μL) was added to fix the cells and the cells were incubated at ambient temperature for 20 min without shaking.
The cells were washed with a plate washer buffer to remove the formaldehyde solution. The plate was flicked to removed excess wash buffer and tapped onto paper towels. Quenching buffer (100 μL) was added to each well and the cells were incubated at ambient temperature for 20 minutes without shaking.
The cells were washed with a plate washer buffer to remove the quenching buffer. Blocking buffer (100 μL) was added and the cells were incubated at ambient temperature for at least an hour with gentle shaking.
The cells were washed with a plate washer buffer and diluted primary antibody (50 μL) was added to each well (blocking buffer was added to the negative control wells instead). The plates were incubated overnight at 4° C. with gentle shaking.
The wash buffer was removed, diluted secondary antibody (100 μL) was added, and the cells were incubated at ambient temperature for 1 hour with gentle shaking. During the incubation, the chemiluminescent reagent was brought to ambient temperature.
The secondary antibody was removed by washing the cells 1× with wash buffer, 1× with PBS by plate washer. The PBS was removed from the plate and the chemiluminescent reagent (80 μL: 40 μL A and 40 μL B) was added to each well at ambient temperature.
The resulting chemiluminescence was read with a Luminomitor within 10 minutes to minimize changes in signal intensity. […] The plate was tapped onto paper towels to remove excess liquid from wells and air-dried at ambient temperature for 5 minutes.
Crystal Violet working solution (60 μL) was added to each well and the cells were incubated at ambient temperature for 30 min. The crystal violet solution was removed, and the wells were rinsed with PBS, then washed 3× with PBS (200 μL) for 5 minutes each.
5% SDS solution (70 μL) was added to each well and the cells were incubated on a shaker for 30 min at ambient temperature.
This relative cell number was then used to normalize each luminescence reading. […]

Chain of Axl (P30530 26-894): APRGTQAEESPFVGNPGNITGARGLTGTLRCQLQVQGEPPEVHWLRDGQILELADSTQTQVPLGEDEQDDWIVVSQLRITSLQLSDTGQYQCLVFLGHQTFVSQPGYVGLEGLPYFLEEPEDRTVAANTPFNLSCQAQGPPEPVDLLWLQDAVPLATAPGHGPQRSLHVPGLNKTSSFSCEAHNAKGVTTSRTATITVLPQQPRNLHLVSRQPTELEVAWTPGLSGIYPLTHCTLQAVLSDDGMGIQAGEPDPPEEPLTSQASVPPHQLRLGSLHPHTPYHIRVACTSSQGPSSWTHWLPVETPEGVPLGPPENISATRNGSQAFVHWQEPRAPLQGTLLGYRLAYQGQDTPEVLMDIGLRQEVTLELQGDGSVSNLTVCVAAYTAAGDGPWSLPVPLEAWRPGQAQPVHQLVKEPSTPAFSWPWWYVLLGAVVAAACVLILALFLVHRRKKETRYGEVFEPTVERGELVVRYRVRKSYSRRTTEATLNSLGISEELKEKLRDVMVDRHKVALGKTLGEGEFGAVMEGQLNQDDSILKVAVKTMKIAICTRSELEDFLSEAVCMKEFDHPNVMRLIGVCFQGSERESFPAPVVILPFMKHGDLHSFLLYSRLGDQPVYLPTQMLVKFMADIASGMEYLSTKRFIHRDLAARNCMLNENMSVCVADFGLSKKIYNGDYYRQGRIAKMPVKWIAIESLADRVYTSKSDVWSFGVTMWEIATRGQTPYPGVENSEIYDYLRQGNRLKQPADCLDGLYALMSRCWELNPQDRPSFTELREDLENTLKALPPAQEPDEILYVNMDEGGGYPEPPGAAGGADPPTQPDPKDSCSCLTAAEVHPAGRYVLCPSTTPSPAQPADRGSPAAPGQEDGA

| SMILES | IC50 [µM] |
| --- | --- |
| Nc1nc(Nc2ccc(OCCN3CCCCC3)cc2)nn1-c1ccccc1 [Compound 1, 1-phneyl-N^3-(4-(2-(piperidin-1-yl)ethoxy)phenyl)-1H-1,2,4-triazole-3,5-diamine] | > 20 |
| Nc1nc(Nc2ccc(OCCN3CCCC3)c(Cl)c2)nn1-c1ccccn1 [Compound 4, N^3-(3-chloro-4-(2-(pyrrolidin-1-yl)ethoxy)phenyl)-1-(pyridin-2-yl)-1H-1,2,4-triazole-3,5-diamine] | < 1 |
| CNc1nc(Nc2ccc(OCCN3CCCC3)cc2)nn1-c1ccccn1 [Compound 6, N^5-methyl-1-(pyridin-2-yl)-N^3-(4-(2-(pyrrolidin-1-yl)ethoxy)phenyl)-1H-1,2,4-triazole-3,5-diamine] | > 20 |
| Nc1nc(Nc2ccc(OCCN3CCCC3)cc2)nn1-c1ccc(S(N)(=O)=O)cc1 [Compound 8, 4-(5-amino-3-(4-(2-(pyrrolidin-1-yl)ethoxy)phenylamino)-1H-1,2,4-triazol-1-yl)benzenesulfonamide] | > 20 |
| Nc1nc(Nc2ccc(OCCN3CCCC3)cc2)nn1-c1cnc2ccccc2n1 [Compound 9, N^3-(4-(2-(pyrrolidin-1-yl)ethoxy)phenyl)-1-(quinoxalin-2-yl)-1H-1,2,4-triazole-3,5-diamine] | < 1 |
| Nc1nc(Nc2ccc(OCCN3CCCCC3)cc2)nn1-c1ccnc(Cl)c1 [Compound 10, 1-(2-chloropyridin-4-yl)-N^3-(4-(2-(piperidin-1-yl)ethoxy)phenyl)-1H-1,2,4-triazole-3,5-diamine] | > 20 |
| Nc1nc(Nc2ccc(OCCN3CCCC3)cc2)nn1-c1nc2ccccc2s1 [Compound 11, 1-(benzo[d]thiazol-2-yl)-N^3-(4-(2-(pyrrolidin-1-yl)ethoxy)phenyl)-1H-1,2,4-triazole-3,5-diamine] | > 20 |
| Nc1nc(Nc2ccc(OCCN3CCCC3)cc2)nn1-c1cnccn1 [Compound 13, 1-(pyrazin-2-yl)-N^3-(4-(2-(pyrrolidin-1-yl)ethoxy)phenyl)-1H-1,2,4-triazole-3,5-diamine] | 1 to 10 |
| Cn1c(-n2nc(Nc3ccc(OCCN4CCCC4)cc3)nc2N)nc2ccccc21 [Compound 14, 1-(1-methyl-1H-benzo[d]imidazol-2-yl)-N^3-(4-(2-(pyrrolidin-1-yl)ethoxy)phenyl)-1H-1,2,4-triazole-3,5-diamine] | > 20 |
| Nc1nc(Nc2ccc(OCCN3CCCCC3)cc2)nn1-c1ccnc(N2CCOCC2)c1 [Compound 15, 1-(2-morpholinopyridin-4-yl)-N^3-(4-(2-(piperidin-1-yl)ethoxy)phenyl)-1H-1,2,4-triazole-3,5-diamine] | > 20 |
| Nc1nc(Nc2ccc(OCCN3CCCC3)cc2)nn1-c1cccc(Cl)n1 [Compound 16, 1-(6-chloropyridin-2-yl)-N^3-(4-(2-(pyrrolidin-1-yl)ethoxy)phenyl)-1H-1,2,4-triazole-3,5-diamine] | 1 to 10 |
| Nc1nc(Nc2ccc(OCCN3CCCC3)cc2)nn1-c1ccc(Cl)cn1 [Compound 17, 1-(5-chloropyridin-2-yl)-N^3-(4-(2-(pyrrolidin-1-yl)ethoxy)phenyl)-1H-1,2,4-triazole-3,5-diamine] | 1 to 10 |
| Nc1nc(Nc2ccc(OCCN3CCCC3)cc2)nn1-c1ncccc1Cl [Compound 18, 1-(3-chloropyridin-2-yl)-N^3-(4-(2-(pyrrolidin-1-yl)ethoxy)phenyl)-1H-1,2,4-triazole-3,5-diamine] | > 20 |
| Nc1nc(Nc2ccc(OCCN3CCCCC3)cc2)nn1-c1cccc(Cl)n1 [Compound 19, 1-(6-chloropyridin-2-yl)-N^3-(4-(2-(piperidin-1-yl)ethoxy)phenyl)-1H-1,2,4-triazole-3,5-diamine] | < 1 |
| Nc1nc(Nc2ccc(OCCN3CCCCC3)cc2)nn1-c1cccc(N2CCOCC2)n1 [Compound 20, 1-(6-morpholinopyridin-2-yl)-N^3-(4-(2-(piperidin-1-yl)ethoxy)phenyl)-1H-1,2,4-triazole-3,5-diamine] | 10 to 20 |
| CC1CCCN1CCOc1ccc(Nc2nc(N)n(-c3cnc4ccccc4n3)n2)cc1 (stereo not shown) [Compound 21, N^3-(4-(2-(2-methylpyrrolidin-1-yl)ethoxy)phenyl)-1-(quinoxalin-2-yl)-1H-1,2,4-triazole-3,5-diamine] | < 1 |
| CC1CCCN1CCOc1ccc(Nc2nc(N)n(-c3nc4ccccc4s3)n2)cc1 (stereo not shown) [Compound 22, 1-(benzo[d]thiazol-2-yl)-N^3-(4-(2-(2-methylpyrrolidin-1-yl)ethoxy)phenyl)-1H-1,2,4-triazole-3,5-diamine] | > 20 |
| CC1CCCN1CCOc1ccc(Nc2nc(N)n(-c3nc4ccccc4n3C)n2)cc1 (stereo not shown) [Compound 23, 1-(1-methyl-1H-benzo[d]imidazol-2-yl)-N^3-(4-(2-(2-methylpyrrolidin-1-yl)ethoxy)phenyl)-1H-1,2,4-triazole-3,5-diamine] | > 20 |
| CC1CCCN1CCOc1ccc(Nc2nc(N)n(-c3nc4ccccc4[nH]3)n2)cc1 (stereo not shown) [Compound 24, 1-(1H-benzo[d]imidazol-2-yl)-N^3-(4-(2-(2-methylpyrrolidin-1-yl)ethoxy)phenyl)-1H-1,2,4-triazole-3,5-diamine] | > 20 |
| Nc1nc(Nc2ccc(OCCN3CCCC3)cc2)nn1-c1nncc2ccccc12 [Compound 25, 1-(phthalazin-1-yl)-N^3-(4-(2-(pyrrolidin-1-yl)ethoxy)phenyl)-1H-1,2,4-triazole-3,5-diamine] | < 1 |
| Nc1nc(Nc2ccc(OCCN3CCCC3)cc2)nn1-c1cc(C(F)(F)F)ccn1 [Compound 26, N^3-(4-(2-(pyrrolidin-1-yl)ethoxy)phenyl)-1-(4-(trifluoromethyl)pyridin-2-yl)-1H-1,2,4-triazole-3,5-diamine] | < 1 |
| CC1CCCN1CCOc1ccc(Nc2nc(N)n(-c3ccccc3F)n2)cc1 (stereo not shown) [Compound 27, 1-(2-fluorophenyl)-N^3-(4-(2-(2-methylpyrrolidin-1-yl)ethoxy)phenyl)-1H-1,2,4-triazole-3,5-diamine] | > 20 |
| Nc1nc(Nc2ccc(OCCN3CCCCC3)cc2)nn1-c1ccccc1F [Compound 28, 1-(2-fluorophenyl)-N^3-(4-(2-(piperidin-1-yl)ethoxy)phenyl)-1H-1,2,4-triazole-3,5-diamine] | > 20 |
| Nc1nc(Nc2ccc(OCCN3CCCC3)cc2)nn1-c1ncccc1C(F)(F)F [Compound 29, N^3-(4-(2-(pyrrolidin-1-yl)ethoxy)phenyl)-1-(3-(trifluoromethyl)pyridin-2-yl)-1H-1,2,4-triazole-3,5-diamine] | 1 to 10 |
| COc1cccc(-n2nc(Nc3ccc(OCCN4CCCC4)cc3)nc2N)n1 [Compound 30, 1-(6-methoxypyridin-2-yl)-N^3-(4-(2-(pyrrolidin-1-yl)ethoxy)phenyl)-1H-1,2,4-triazole-3,5-diamine] | 1 to 10 |
| Nc1nc(Nc2ccc(OCCN3CCCC3)cc2)nn1-c1nc2ccccc2[nH]1 [Compound 31, 1-(1H-benzo[d]imidazol-2-yl)-N^3-(4-(2-(pyrrolidin-1-yl)ethoxy)phenyl)-1H-1,2,4-triazole-3,5-diamine] | > 20 |
| Nc1nc(Nc2ccc(OCCN3CCCC3)cc2)nn1-c1ccc(Br)cn1 [Compound 32, 1-(5-bromopyridin-2-yl)-N^3-(4-(2-(pyrrolidin-1-yl)ethoxy)phenyl)-1H-1,2,4-triazole-3,5-diamine] | > 20 |
| COC(=O)C1CCCN1CCOc1ccc(Nc2nc(N)n(-c3cnc4ccccc4n3)n2)cc1 (stereo not shown) [Compound 33, methyl 1-(2-(4-(5-amino-1-(quinoxalin-2-yl)-1H-1,2,4-triazol-3-ylamino)phenoxy)ethyl)-pyrrolidine-2-carboxylate] | 1 to 10 |
| Nc1nc(Nc2ccc(OCCN3CCCC3)cc2)nn1-c1ccccc1F [Compound 34, 1-(2-fluorophenyl)-N^3-(4-(2-(pyrrolidin-1-yl)ethoxy)phenyl)-1H-1,2,4-triazole-3,5-diamine] | > 20 |
| CNc1cccc(-n2nc(Nc3ccc(OCCN4CCCCC4)cc3)nc2N)n1 [Compound 35, 1-(6-(methylamino)pyridin-2-yl)-N^3-(4-(2-(piperidin-1-yl)ethoxy)phenyl)-1H-1,2,4-triazole-3,5-diamine] | 1 to 10 |

Same assay, conditions: inhibition of Axl activity, phospho-Akt in-cell Western assay

| SMILES | IC50 [µM] |
| --- | --- |
| COc1cc2cnc(-n3nc(Nc4ccc(N5CCN([C@H]6C[C@@H]7CC[C@H]6C7)CC5)cc4)nc3N)nc2cc1OC (racemic) [Compound 182, 1-(6,7-dimethoxyquinazolin-2-yl)-N^3-(4-(4-((1S,2S,4R)-bicyclo[2.2.1]heptan-2-yl)-piperazin-1-yl)phenyl)-1H-1,2,4-triazole-3,5-diamine] | > 20 |
